For series [1], the system named is C57BL/6 mice. The experiment in a line: Retinal safety after intraocular injection (ERG, histology, RGC count). The class given is in vivo, mouse. Here is the method: To reduce the risk of systemic side effects while optimizing the delivery of drugs to retinal tissue, therapies for ocular vascular disease are often administered by intravitreal injection. Therefore, it was assessed whether […] causes retinal toxicity following intraocular administration. To this end, ERGs up to 5 weeks were examined following a single intraocular injection of increasing doses (70, 140, 210, and 350 ng) of 32-134D.
To assess whether a higher dose of 32-134D could facilitate less frequent administration, the safety of higher doses of intraocular administration of 32-134D was assessed. To this end, ERGs up to 2 weeks following a single intraocular injection of high doses (500 and 1,000 ng) of 32-134D were examined.
Intraocular injections: Intravitreal injections were performed with a PLI-100A Pico-liter Microinjector (Warner Instruments, Harvard Bioscience) using pulled-glass micropipettes. Each micropipette was calibrated to deliver a 1 μl volume on depression of a foot switch. The mice were anesthetized with a ketamine (100 mg/kg) and xylazine (5 mg/kg) mixture, and under a dissecting microscope, the sharpened tip of the micropipette was passed through the sclera just posterior to the limbus into the vitreous cavity and the foot switch was depressed, which caused fluid to penetrate into the vitreous space. Test compound was injected into the vitreous cavity in OIR and STZ mice for vascular permeability test, retinal vasculature and lysates for WB and qPCR analysis.
(§1) Flash scotopic ERGs: All procedures were performed under dim red light. Mice were dark adapted overnight, anesthetized with ketamine (50 mg/kg) and xylazine (5 mg/kg) and pupils were dilated with a topical drop of tropicamide (1%). Scotopic ERG responses were measured using the Celeris ERG stimulator (Diagnosys, Lowell, MA) at flash intensities of 0.025, 0.25, 2.5, 7.96, and 79.06 cd/s/m2. ERGs were measured simultaneously from both eyes with a ground electrode placed into the forehead between the eyes and a reference electrode into the hip.

The subject of series [2] is C57BL/6 mice. The experiment in a line: Safety after systemic (IP) dosing: fundus/angiography, ERG, tissue histology. The format is in vivo, mouse. Here is the method:
Fundus photos and fluorescein angiographic images of the retina of C57BL/6 mice on day 30 following 5 daily intraperitoneal (IP) injections (day 0 to day 5) with 32-134D at 40 or 80 mg/kg compared to vehicle control (FIG. 17).
ERG measurements taken in C57BL/6 mice at day 7 (D7) and day 14 (D14) following 5 daily IP injections (day 0 to day 5) with vehicle control (Veh) or 32-134D at 20, 40, or 80 mg/kg/day.
To survey for possible organ damage following systemic administration, three-month-old mice were treated with the 80 mg/kg/day of 32-134D by IP injection for five consecutive days (days 0-4). On day 30, mice were sacrificed, perfused with PBS, and tissues were harvested and fixed in 4% paraformaldehyde (PFA). Harvested tissues included the brain, heart, muscle, liver, spleen, kidney, stomach, small intestine, and large intestine. Tissues were embedded with paraffin, sectioned at […], and stained with hematoxylin and eosin. Images were taken at 20× magnification.
as §1
Fluorescein angiography in mice: To evaluate the effect of 32-134D on the retinal vasculature and vascular permeability, experimental animals were treated with 5 consecutive daily IP injections with 32-134D at 40 or 80 mg/kg. On day 30, mice were anesthetized using intramuscular injection with ketamine (50 mg/kg) and xylazine (5 mg/kg). Pupils were then dilated using 1% tropicamide eye drops and mice were placed on the imaging platform of the Phoenix Micron III retinal imaging microscope (Phoenix Research Laboratories, Pleasanton, CA). Goniovisc 2.5% (hypromellose; Sigma Pharmaceuticals, LLC, Monticello, IA) was applied liberally to keep the eye moist during imaging studies. Fundus photos were taken before administering 10 to 20 μl of 10% fluorescein sodium (Apollo Ophthalmics, Newport Beach, CA) IP injection. Rapid acquisition of fluorescein angiographic images was then performed for 5 minutes. Fluorescein leakage manifests as indistinct vascular borders progressing to diffusely hazy fluorescence. Fluorescein leakage was compared between different groups by quantifying the fluorescence intensities collected after 1, 2, and 3 minutes following fluorescein injection using ImageJ software (National Institutes of Health, Bethesda, MD).

Another series concerns VEGF and ANGPTL4 mRNA. The experiment in a line: mRNA expression in hypoxic MIO-M1 cells. The class given is cell-based, human. Conditions: hypoxia, 10 μM. The procedure:
It has previously been reported that the cells in the inner nuclear layer of the retina that express VEGF in response to hypoxia/ischemia are Müller glial cells (X. Xin et al., Proc Natl Acad Sci USA 110, E3425-3434 (2013)). […] The effects of 32-134D on HIF-1α accumulation persisted up to 16 hours after treatment of cultured cells (FIG. 27B).
Reverse transcription and quantitative real-time PCR: Total RNA was isolated from cultured cells or retinas with PureLink™ RNA Mini Kit (Invitrogen #12183025), and cDNA was prepared with MuLV Reverse Transcriptase (Applied Biosystems). Quantitative real-time PCR was performed with Power SYBR Green PCR Master Mix (Applied Biosystems) and MyiQ Real-Time PCR Detection System (Bio-Rad). Normalization was done using cyclophilin A for mouse tissue and human cell lines.

Where [3] appears, read: 5 daily IP injections 20, 40 or 80 mg/kg/day, D7 and D14.

Take `Brc1ccc2c(-c3csc(-c4c[nH]c5c(Br)cccc45)n3)c[nH]c2c1` [Compound 32-134D, 4-(6-bromo-1H-indol-3-yl)-2-(7-bromo-1H-indol-3-yl)thiazole]: the “retinal histology including GCL” value in the series with C57BL/6 mice [1] (35 days after intraocular injection of up to 350 ng) was “normal histology”. In addition, in the series on C57BL/6 mice [1] (highest doses tested (210 or 350 ng), 35 days), the “number of RGCs on retinal flat mounts” value is recorded as “unaffected”. In addition, the “ERG evidence of retina toxicity” value in the series on C57BL/6 mice [1] (single intraocular injection 70, 140, 210, 350 ng, up to 5 weeks) is “no ERG evidence of retina toxicity”. Further, the “ERG evidence of retina toxicity” value with C57BL/6 mice [1] (single intraocular injection 500 and 1,000 ng, up to 2 weeks) is reported as “no ERG evidence of retina toxicity”. Moreover, in the series with C57BL/6 mice [2] (80 mg/kg/day IP for five days, day 30), the “tissue histology (brain, heart, muscle, liver, spleen, kidney, stomach, intestines)” value is “no evidence of toxicity”. In the series with C57BL/6 mice [2] (setting [3]), the “ERG a-wave versus vehicle” value was “no statistically significant difference” and the “ERG b-wave versus vehicle” value is reported as “no statistically significant difference”. Besides, in the series on C57BL/6 mice [2] (5 daily IP injections 40 or 80 mg/kg, day 30), the “fundus photos and fluorescein angiography of retina” value is “intact retinal vasculature and absence of capillary leakage”. In addition, in the series on VEGF and ANGPTL4 mRNA, the “mRNA expression of VEGF and ANGPTL4” value is “potent inhibition”.
